According to US20040005354A1, “Oral trimethobenzamide formulations and methods” (King Pharmaceuticals, Inc., priority 2002, published 2004):

Assay: Safety assessment (adverse events, laboratory tests) in the four-way crossover study
Format: in vivo, human (healthy subjects)
Source text: Seventy-four healthy, non-smoking, male & female subjects, 18-65 years old were enrolled in this study. A total of 68 subjects completed all the requirements of the protocol. There were no enrollment violations. However, nine of the 74 subjects began the study during the third period of the initial group of subjects. All 74 subjects who received at least one dose of study medication were included in the safety analysis.
This study was a single center, randomized, open-label, 4-way crossover study in healthy subjects. Dosing was administered in the fasted state. Seventy-four (74) subjects were randomized into the study. All seventy-four subjects received one or more doses of study medication and are therefore included in the safety assessment. On Treatment Day 1 of the first treatment period, each subject was randomized to receive one of four possible study treatment sequences. The treatment groups consisted of the four treatments administered sequentially as DCAB, ADBC, BACD or CBDA. These treatments are shown below.
A signed informed consent was obtained from each subject. For screening purposes, the following procedures were required of each subject and were performed by the clinical site within 30 days prior to the study: a complete physical examination including a medical history, vital signs, clinical laboratory safety tests on blood and urine, medications taken prior to and during the study, and a serum pregnancy test for female subjects.
During the treatments, temperature, blood pressure, heart rate and respiratory rate were monitored as a safety measure. A physical examination and clinical laboratory tests were repeated at the completion of the study. Subjects were observed and questioned throughout the study for the occurrence of any adverse events.
A total of 28 adverse events (AEs) were experienced; 27 were treatment emergent. Twenty-one (21) of these were assessed as related to study treatment. All related AEs are known to occur with trimethobenzamide and were primarily mild or moderate in intensity. One (1) severe AE occurred in one subject which was judged as unrelated to study treatment-severe pharyngitis. […] A summary of treatment emergent adverse events (AEs) is presented in Table 6 using the preferred medical term.

[1] = 74 subjects, all four treatment periods

**Q.** Which “subjects with decreased red blood cell count at the end of treatment” value (5 percent prior to treatment) does the source give for “N-[2-(dimethylamino)-ethoxy]-3,4,5-trimethoxybenzamide hydrochloride [trimethobenzamide hydrochloride]” here?
**A.** 11%

**Q.** What about the “subjects with low hematocrit at the end of treatment” value (8 percent prior to treatment) of the same substance?
**A.** 34%

**Q.** And the “AEs assessed as related to study treatment” value [1]?
**A.** 21

**Q.** And the “serious AEs” value [1]?
**A.** no serious AEs

**Q.** And the “total adverse events (AEs) experienced” value [1]?
**A.** 28

**Q.** And the “treatment emergent AEs” value [1]?
**A.** 27

**Q.** And the “dizziness, number” value (all four treatment periods)?
**A.** 3

**Q.** And the “neurologic complaints, number” value (all four treatment periods)?
**A.** 15

**Q.** And the “paresthesias, number” value (all four treatment periods)?
**A.** 3

**Q.** What about the hematocrit mean change (end of treatment vs prior) of the same substance?
**A.** 2.3%

**Q.** What about the hemoglobin mean change (end of treatment vs prior) of the same substance?
**A.** 0.6 g/dL

**Q.** And the “red blood cell count mean change” value (end of treatment vs prior)?
**A.** 2e+11 L⁻¹

**Q.** And the “overall safety and tolerability” value (in vivo)?
**A.** safe and well tolerated

**Q.** And the “subjects with normal hemoglobin prior to treatment who had low hemoglobin at the end of treatment” value (in vivo)?
**A.** 13%

**Q.** What about the “headaches, number” value (seen in a total of 7 subjects) of the same substance?
**A.** 8

**Q.** What about the “ABDOMINAL PAIN, subjects %” value (sequence A D B C (N = 20)) of the same substance?
**A.** 5.0%

**Q.** And the “ABDOMINAL PAIN, subjects n” value (sequence A D B C (N = 20))?
**A.** 1

**Q.** What about the “CONJUNCTIVITIS, subjects %” value (sequence A D B C (N = 20)) of the same substance?
**A.** 5.0%

**Q.** What about the “CONJUNCTIVITIS, subjects n” value (sequence A D B C (N = 20)) of the same substance?
**A.** 1

**Q.** And the “DIARRHEA, subjects %” value (sequence A D B C (N = 20))?
**A.** 0.0%

**Q.** And the “DIARRHEA, subjects n” value (sequence A D B C (N = 20))?
**A.** 0

**Q.** And the “DIZZINESS, subjects %” value (sequence A D B C (N = 20))?
**A.** 15.0%

**Q.** What about the “DIZZINESS, subjects n” value (sequence A D B C (N = 20)) of the same substance?
**A.** 3

**Q.** What about the “EDEMA, PALMAR, subjects %” value (sequence A D B C (N = 20)) of the same substance?
**A.** 5.0%

**Q.** And the “EDEMA, PALMAR, subjects n” value (sequence A D B C (N = 20))?
**A.** 1

**Q.** And the “ERYTHEMA, EXTERNAL NOSE, subjects %” value (sequence A D B C (N = 20))?
**A.** 0.0%

**Q.** And the “ERYTHEMA, EXTERNAL NOSE, subjects n” value (sequence A D B C (N = 20))?
**A.** 0

**Q.** And the “ERYTHEMA, PALMAR, subjects %” value (sequence A D B C (N = 20))?
**A.** 5.0%

**Q.** What about the “ERYTHEMA, PALMAR, subjects n” value (sequence A D B C (N = 20)) of the same substance?
**A.** 1

**Q.** And the “HEADACHE, subjects %” value (sequence A D B C (N = 20))?
**A.** 5.0%

**Q.** And the “HEADACHE, subjects n” value (sequence A D B C (N = 20))?
**A.** 1

**Q.** And the “HYPOTONIA, subjects %” value (sequence A D B C (N = 20))?
**A.** 0.0%

**Q.** And the “HYPOTONIA, subjects n” value (sequence A D B C (N = 20))?
**A.** 0

**Q.** And the “INJECTION SITE REACTION, subjects %” value (sequence A D B C (N = 20))?
**A.** 0.0%

**Q.** What about the “INJECTION SITE REACTION, subjects n” value (sequence A D B C (N = 20)) of the same substance?
**A.** 0

**Q.** And the “LARYNGISMUS, subjects %” value (sequence A D B C (N = 20))?
**A.** 0.0%

**Q.** And the “LARYNGISMUS, subjects n” value (sequence A D B C (N = 20))?
**A.** 0

**Q.** What about the “LEG CRAMPS, subjects %” value (sequence A D B C (N = 20)) of the same substance?
**A.** 0.0%

**Q.** And the “LEG CRAMPS, subjects n” value (sequence A D B C (N = 20))?
**A.** 0

**Q.** What about the “NAUSEA AND VOMITING, subjects %” value (sequence A D B C (N = 20)) of the same substance?
**A.** 5.0%

**Q.** What about the “NAUSEA AND VOMITING, subjects n” value (sequence A D B C (N = 20)) of the same substance?
**A.** 1

**Q.** And the “NAUSEA, subjects %” value (sequence A D B C (N = 20))?
**A.** 5.0%

**Q.** What about the “NAUSEA, subjects n” value (sequence A D B C (N = 20)) of the same substance?
**A.** 1

**Q.** What about the “Number of Subject With At Least one AE, %” value (sequence A D B C (N = 20)) of the same substance?
**A.** 25.0%

**Q.** And the “Number of Subject With No AE, %” value (sequence A D B C (N = 20))?
**A.** 75.0%

**Q.** What about the “PARESTHESIA, subjects %” value (sequence A D B C (N = 20)) of the same substance?
**A.** 0.0%

**Q.** And the “PARESTHESIA, subjects n” value (sequence A D B C (N = 20))?
**A.** 0

**Q.** And the “PHARYNGITIS, subjects %” value (sequence A D B C (N = 20))?
**A.** 0.0%

**Q.** And the “PHARYNGITIS, subjects n” value (sequence A D B C (N = 20))?
**A.** 0

**Q.** What about the “RASH, subjects %” value (sequence A D B C (N = 20)) of the same substance?
**A.** 0.0%

**Q.** And the “RASH, subjects n” value (sequence A D B C (N = 20))?
**A.** 0

**Q.** What about the “ABDOMINAL PAIN, subjects %” value (sequence B A C D (N = 18)) of the same substance?
**A.** 0.0%

**Q.** What about the “ABDOMINAL PAIN, subjects n” value (sequence B A C D (N = 18)) of the same substance?
**A.** 0

**Q.** And the “CONJUNCTIVITIS, subjects %” value (sequence B A C D (N = 18))?
**A.** 0.0%

**Q.** What about the “CONJUNCTIVITIS, subjects n” value (sequence B A C D (N = 18)) of the same substance?
**A.** 0

**Q.** And the “DIARRHEA, subjects %” value (sequence B A C D (N = 18))?
**A.** 0.0%

**Q.** And the “DIARRHEA, subjects n” value (sequence B A C D (N = 18))?
**A.** 0

**Q.** And the “DIZZINESS, subjects %” value (sequence B A C D (N = 18))?
**A.** 0.0%

**Q.** What about the “DIZZINESS, subjects n” value (sequence B A C D (N = 18)) of the same substance?
**A.** 0

**Q.** And the “EDEMA, PALMAR, subjects %” value (sequence B A C D (N = 18))?
**A.** 0.0%

**Q.** What about the “EDEMA, PALMAR, subjects n” value (sequence B A C D (N = 18)) of the same substance?
**A.** 0

**Q.** And the “ERYTHEMA, EXTERNAL NOSE, subjects %” value (sequence B A C D (N = 18))?
**A.** 0.0%

**Q.** What about the “ERYTHEMA, EXTERNAL NOSE, subjects n” value (sequence B A C D (N = 18)) of the same substance?
**A.** 0

**Q.** What about the “ERYTHEMA, PALMAR, subjects %” value (sequence B A C D (N = 18)) of the same substance?
**A.** 0.0%

**Q.** What about the “ERYTHEMA, PALMAR, subjects n” value (sequence B A C D (N = 18)) of the same substance?
**A.** 0

**Q.** And the “HEADACHE, subjects %” value (sequence B A C D (N = 18))?
**A.** 0.0%

**Q.** And the “HEADACHE, subjects n” value (sequence B A C D (N = 18))?
**A.** 0

**Q.** What about the “HYPOTONIA, subjects %” value (sequence B A C D (N = 18)) of the same substance?
**A.** 0.0%

**Q.** What about the “HYPOTONIA, subjects n” value (sequence B A C D (N = 18)) of the same substance?
**A.** 0

**Q.** What about the “INJECTION SITE REACTION, subjects %” value (sequence B A C D (N = 18)) of the same substance?
**A.** 5.6%

**Q.** What about the “INJECTION SITE REACTION, subjects n” value (sequence B A C D (N = 18)) of the same substance?
**A.** 1

**Q.** And the “LARYNGISMUS, subjects %” value (sequence B A C D (N = 18))?
**A.** 5.6%

**Q.** What about the “LARYNGISMUS, subjects n” value (sequence B A C D (N = 18)) of the same substance?
**A.** 1

**Q.** And the “LEG CRAMPS, subjects %” value (sequence B A C D (N = 18))?
**A.** 0.0%

**Q.** What about the “LEG CRAMPS, subjects n” value (sequence B A C D (N = 18)) of the same substance?
**A.** 0

**Q.** What about the “NAUSEA AND VOMITING, subjects %” value (sequence B A C D (N = 18)) of the same substance?
**A.** 0.0%

**Q.** And the “NAUSEA AND VOMITING, subjects n” value (sequence B A C D (N = 18))?
**A.** 0

**Q.** And the “NAUSEA, subjects %” value (sequence B A C D (N = 18))?
**A.** 0.0%

**Q.** What about the “NAUSEA, subjects n” value (sequence B A C D (N = 18)) of the same substance?
**A.** 0

**Q.** And the “Number of Subject With At Least one AE, %” value (sequence B A C D (N = 18))?
**A.** 22.2%

**Q.** And the “Number of Subject With No AE, %” value (sequence B A C D (N = 18))?
**A.** 77.8%

**Q.** And the “PARESTHESIA, subjects %” value (sequence B A C D (N = 18))?
**A.** 11.1%

**Q.** And the “PARESTHESIA, subjects n” value (sequence B A C D (N = 18))?
**A.** 2
